This is an account of results in patent US20140023611A1 (priority 2010, published 2014).

The structures appear in SMILES notation.

In this test the target is T1, rat NaP2b (SLC34A2) (Rattus norvegicus, UniProt Q9JJ09).
T1 construct: host or cells: HEK293
T1 sequence (Q9JJ09 1-695): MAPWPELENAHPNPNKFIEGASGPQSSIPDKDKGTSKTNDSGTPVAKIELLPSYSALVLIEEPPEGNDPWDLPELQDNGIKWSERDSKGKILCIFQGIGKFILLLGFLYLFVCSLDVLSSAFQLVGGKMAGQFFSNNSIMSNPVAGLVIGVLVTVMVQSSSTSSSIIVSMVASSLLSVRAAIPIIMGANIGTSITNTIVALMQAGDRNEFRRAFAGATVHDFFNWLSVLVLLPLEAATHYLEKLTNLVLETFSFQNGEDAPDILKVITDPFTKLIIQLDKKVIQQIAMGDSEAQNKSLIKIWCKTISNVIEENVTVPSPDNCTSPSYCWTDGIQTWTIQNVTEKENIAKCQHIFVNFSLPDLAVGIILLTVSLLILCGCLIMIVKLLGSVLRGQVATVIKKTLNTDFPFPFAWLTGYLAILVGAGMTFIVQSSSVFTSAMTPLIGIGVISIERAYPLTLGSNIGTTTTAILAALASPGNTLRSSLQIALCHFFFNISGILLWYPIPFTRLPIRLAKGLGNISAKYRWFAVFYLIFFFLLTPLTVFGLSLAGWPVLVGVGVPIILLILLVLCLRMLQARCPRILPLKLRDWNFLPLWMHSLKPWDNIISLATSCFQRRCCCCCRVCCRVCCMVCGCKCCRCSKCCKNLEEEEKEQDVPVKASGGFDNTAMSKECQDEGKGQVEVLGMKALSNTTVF
The test is described as follows: Inhibition of NaP2b-mediated Pi (33P) uptake in transfected HEK293 cells, rat NaP2b. Type of test: cell-based. The settings on record: 33P Pi uptake, 0.1 mM phosphate, value given as pIC50 range. How it is done: HEK293 cells were obtained from the American Type Culture collection and propagated per their instructions. […] The sequence of the human protein was mutated to insert a threonine after residue 37, and to introduce a N39D mutation.
Cells were seeded into 96-well plates at 25,000 cells/well and cultured overnight. Lipofectamine 2000 (Invitrogen) was used to introduce the NaP2b cDNA, and the cells were allowed to approach confluence during a second overnight incubation. […] Each compound was tested at twelve concentrations ranging from 0.1 nM to 30 uM. Assays were run in duplicate.
Cells were lysed by addition of 20 μL 0.1% Tween 80 followed by 100 μL scintillation fluid, and counted using a TopCount (Perkin Elmer).
pIC50 (the negative log of the IC50) values of the test compounds were calculated using GraphPad Prism.
What is called IC50 is the point on the concentration scale where inhibition reaches its midpoint. Read a high IC50 as lower potency. With `CC(=O)N[C@H]1CCN(Cc2cccc(C(=O)Nc3ccc(N4CCCCC4)cc3-c3cc(C(=O)NCc4cccc(C(F)(F)F)c4)ccn3)n2)C1` [Example 56, (S)-6-((3-Acetamidopyrrolidin-1-yl)methyl)-N-(4-(piperidin-1-yl)-2-(4-((3-(trifluoromethyl)benzyl)carbamoyl)pyridin-2-yl)phenyl)picolinamide], the IC50 is 10 to 31.6 µM.
Compound `O=C(NCCOCCO)c1cccc(C(=O)Nc2ccc(Cl)cc2-c2cc(NCc3cccc(C(F)(F)F)c3)ncn2)c1` [Example 65, N1-(4-Chloro-2-(6-((3-(trifluoromethyl)benzyl)amino)pyrimidin-4-yl)phenyl)-N3-(2-(2-hydroxyethoxy)ethyl)isophthalamide] gave an IC50 of 10 to 31.6 µM.
As for `CN(CCN1CCOCC1)C(=O)c1cccc(C(=O)Nc2ccc(N3CCN(c4ncccn4)CC3)cc2-c2cc(C(=O)NCc3cccc(C(F)(F)F)c3)ccn2)c1` [Example 96], the figure is 10 to 31.6 µM; as for `C[C@H]1CCCCN1c1ccc(NC(=O)c2cccc(C(=O)N(C)CCN3CCOCC3)c2)c(-c2cc(C(=O)NCc3cccc(C(F)(F)F)c3)ccn2)c1` [Example 105], 1 to 7.94 µM.
`CC(=O)NC1CCN(C(=O)c2cccc(C(=O)Nc3ccc(N4CCCCC4)cc3-c3cc(C(=O)NCc4cccc(C(F)(F)F)c4)ccn3)c2)C1` (stereo in doubt) [Example 4.10, (S)-2-(2-(3-(3-Acetamidopyrrolidine-1-carbonyl)benzamido)-5-(piperidin-1-yl)phenyl)-N-(3-(trifluoromethyl)benzyl)isonicotinamide] gave an IC50 of 10 to 31.6 µM.
Consider `O=C(O)c1cccc(CSCc2cccc(C(=O)Nc3ccc(N4CCCCC4)cc3-c3cc(C(=O)NCc4cccc(C(F)(F)F)c4)ccn3)c2)c1` [Example 9.3, 3-(((3-((4-(Piperidin-1-yl)-2-(4-((3-(trifluoromethyl)benzyl)carbamoyl)pyridin-2-yl)phenyl)carbamoyl)benzyl)thio)methyl)benzoic acid], for which the IC50 was 1 to 7.94 µM.
As for `CCN(CC)CCN(C)Cc1cccc(C(=O)Nc2ccc(Cl)cc2-c2cc(NCc3cccc(C(F)(F)F)c3)ncn2)c1` [Example 68, N-(4-Chloro-2-(6-((3-(trifluoromethyl)benzyl)amino)pyrimidin-4-yl)phenyl)-3-(((2-(diethylamino)ethyl)(methyl)amino)methyl)benzamide], the figure is 10 to 31.6 µM; as for `COCCOCCOCCOCCOCCOCCOCCOCC(=O)N1CCN(CCN(C)C(=O)c2cccc(C(=O)Nc3ccc(N4CCCCC4)cc3-c3cc(C(=O)N[C@H]4CCCc5ccccc54)ccn3)c2)CC1` [Example 228, (S)—N1-(2-(4-2,5,8,11,14,17,20,23-octaoxapentacosanepiperazin-1-yl)ethyl)-N1-methyl-N3-(4-(piperidin-1-yl)-2-(4-(1,2,3,4-tetrahydronaphthalen-1-ylcarbamoyl)pyridin-2-yl)phenyl)isophthalamide], 1 to 7.94 µM; as for `CN(CCNC(=O)OC(C)(C)C)C(=O)c1cccc(C(=O)Nc2ccc(N3CCCCC3)cc2-c2cc(C(=O)NCc3cccc(C(F)(F)F)c3)ccn2)c1` [Example 4.22], 10 to 31.6 µM.
As for `CN(CCN1CCOCC1)C(=O)c1cccc(C(=O)Nc2ccc(N3CCCCC3)cc2-c2cc(OCc3cccc(C(F)(F)F)c3)ccn2)c1` [Example 99], the figure is 10 to 31.6 µM; as for `CCN(CCN1CCOCC1)C(=O)c1cccc(C(=O)Nc2ccc(N3CCCCC3)cc2-c2cc(C(=O)NCc3cccc(C(F)(F)F)c3)ccn2)c1` [Example 4.8, N1-Ethyl-N1-(2-morpholinoethyl)-N3-(4-(piperidin-1-yl)-2-(4-((3-(trifluoromethyl)benzyl)carbamoyl)pyridin-2-yl)phenyl)isophthalamide], 1 to 7.94 µM.
Under `CN(C)CCC#Cc1cccc(C(=O)Nc2ccc(Cl)cc2-c2cc(NCc3cccc(C(F)(F)F)c3)ncn2)c1` [Example 67, N-(4-Chloro-2-(6-(3-(trifluoromethyl)benzylamino)pyrimidin-4-yl)phenyl)-3-(4-(dimethylamino)but-1-ynyl)benzamide 2,2,2-trifluoroacetate] stands 10 to 31.6 µM.
As to `CC(C)(C)OC(=O)NC(CSCc1cccc(C(=O)Nc2ccc(N3CCCCC3)cc2-c2cc(C(=O)NCc3cccc(C(F)(F)F)c3)ccn2)c1)C(=O)O` (centres unmarked) [Example 8.10], the IC50 is 10 to 31.6 µM.
`O=C(O)CCSCc1cccc(C(=O)Nc2ccc(N3CCCCC3)cc2-c2cc(C(=O)NC(c3ccccc3)c3ccccc3)ccn2)c1` [Example 1.36] showed an IC50 of 1 to 7.94 µM.
Under `Cc1ccc(CNC(=O)c2ccnc(-c3cc(N4CCCCC4)ccc3NC(=O)c3cccc(CSCCC(=O)O)c3)c2)o1` [Example 1.18] stands 1 to 7.94 µM; under `O=C(O)CCSCc1cccc(C(=O)Nc2ccc(N3CCCCC3)cc2-c2cc(C(=O)NCc3cccc(C(F)(F)F)c3)ncn2)c1` [Example 87], 10 to 31.6 µM; under `COCCN(CCOCCOCCOCCC(=O)O)CCN(C)C(=O)c1cccc(C(=O)Nc2ccc(N3CCCCC3)cc2-c2cc(C(=O)N[C@H]3CCCc4ccccc43)ccn2)c1` [Example 221, 5-{2-[N-methyl-1-(3-{[4-(piperidin-1-yl)-2-(4-{[(1S)-1,2,3,4-tetrahydronaphthalen-1-yl]carbamoyl}pyridin-2-yl)phenyl]carbamoyl}phenyl)formamido]ethyl}-2,8,11,14-tetraoxa-5-azaheptadecan-17-oic acid], 10 to 31.6 µM.
The compound `CC(C)(Cc1cccc(SCc2cccc(C(=O)Nc3ccc(N4CCCCC4)cc3-c3cc(C(=O)NCc4cccc(C(F)(F)F)c4)ccn3)c2)c1)C(=O)O` [Example 8.20] showed a 50% inhibitory concentration (IC50) of 1 to 7.94 µM.
As for `O=C(O)CCSCc1cccc(C(=O)Nc2ccc(N3CCCCC3)cc2-c2nccc(C(=O)NCc3cccc(C(F)(F)F)c3)c2F)c1` [Example 88], the figure is 10 to 31.6 µM; as for `CCN(CC)c1ccc(NC(=O)c2cccc(C(=O)N(C)CCN(C)CCOCCOCCOCCNC(=O)c3ccc(O)cc3)c2)c(-c2cc(C(=O)N[C@H]3CCCc4ccccc43)ccn2)c1` [Example 345, (S)—N^1-(4-(Diethylamino)-2-(4-(1,2,3,4-tetrahydronaphthalen-1-ylcarbamoyl)pyridin-2-yl)phenyl)-N^3-(1-(4-hydroxyphenyl)-14-methyl-1-oxo-5,8,11-trioxa-2,14-diazahexadecan-16-yl)-N^3-methylisophthalamide], 1 to 7.94 µM.
The compound `COC[C@H]1CCCN1c1ccc(NC(=O)c2cccc(C(=O)N(C)CCN3CCOCC3)c2)c(-c2cc(C(=O)NCc3cccc(C(F)(F)F)c3)ccn2)c1` [Example 103] had an IC50 of 10 to 31.6 µM.
Under `COc1ccc(C(F)(F)F)cc1CNC(=O)c1ccnc(-c2cc(N3CCCCC3)ccc2NC(=O)c2cccc(C(=O)N(C)CCN3CCOCC3)c2)c1` [Example 125, N1-(2-(4-((2-methoxy-5-(trifluoromethyl)benzyl)carbamoyl)pyridin-2-yl)-4-(piperidin-1-yl)phenyl)-N3-methyl-N3-(2-morpholinoethyl)isophthalamide] stands 1 to 7.94 µM; under `CN(CCN1CCOCC1)C(=O)c1cccc(SCc2cccc(C(=O)Nc3ccc(N4CCCCC4)cc3-c3cc(C(=O)NCc4cccc(C(F)(F)F)c4)ccn3)c2)c1` [Example 10.7], 1 to 7.94 µM; under `CCN(CC)c1ccc(NC(=O)c2cccc(C(=O)N(C)CCN3CCCN(C(=O)CCOCCOCCOCCOCCOCCOCCOCCOC)CC3)c2)c(-c2cc(C(=O)N[C@H]3CCCc4ccccc43)ccn2)c1` [Example 197, (S)—N^1-(2-(4-(2,5,8,11,14,17,20,23-octaoxahexacosan-26-oyl)-1,4-diazepan-1-yl)ethyl)-N^3-(4-(diethylamino)-2-(4-((1,2,3,4-tetrahydronaphthalen-1-yl)carbamoyl)pyridin-2-yl)phenyl)-N^1-methylisophthalamide], 1 to 7.94 µM.
`O=C(O)CCSCc1cccc(C(=O)Nc2ccc(N3CCCCC3)cc2-c2cc(C(=O)NC3CCCc4ccccc43)ccn2)c1` (centres unmarked) [Example 1.13]: the IC50 is 1 to 7.94 µM.
Take `O=C(O)CCSCc1cccc(C(=O)Nc2ccc(N3CCCCC3)cc2-c2cc(C(=O)NCc3cccc(CN4CCOCC4)c3)ccn2)c1` [Example 1.16]: the IC50 is 10 to 31.6 µM.
As for `O=C(O)CCCC1CCN(C(=O)c2cccc(C(=O)Nc3ccc(N4CCCCC4)cc3-c3cc(C(=O)NCc4cccc(C(F)(F)F)c4)ccn3)c2)CC1` [Example 112], the figure is 1 to 7.94 µM; as for `O=C(O)CCSCc1cccc(C(=O)Nc2ccc(N3CCCCC3)cc2-c2cc(C(=O)NCc3cccc(C(F)(F)F)c3)c(F)cn2)c1` [Example 89], 1 to 7.94 µM.
On to `O=C(O)CCSCc1cccc(C(=O)Nc2ccc(N3CCCCC3)cc2-c2cc(C(=O)NCc3ccc(C(F)(F)F)cc3)ccn2)c1` [Example 1.47], for which the IC50 is 1 to 7.94 µM.
